Experimental data reported in patent publication US20250009835A1, “PHARMACEUTICAL COMPOSITION AND HEALTH FUNCTIONAL FOOD FOR PREVENTION OR TREATMENT OF CANCER COMPRISING MIXED HERBAL EXTRACT” (H&O BIOSIS CO., LTD., priority 2021, published 2025).

Key:
SNU475 cell line [1] = experiment: Cell viability in anticancer drug-resistant cancer cells; format: cell-based; conditions: 0, 1, and 3 µM range, FIG. 4A
Method: (§1) For cell viability measurements on cancer cell lines, three hepatocellular carcinoma cell lines (Huh-7, Hep3B, and SNU475) were seeded in a 384-well plate at a density of 2,000 cells/40 μl/well. After incubation for 16 hours, the extract of the present invention was treated at a concentration of 10 μl/well, followed by incubation at 37° C. for 48 hours. After 48 hours, 40 μl/well of the medium was removed and 4% paraformaldehyde was added to be a 30 μl/well, followed by incubation at room temperature for 10 minutes. Thereafter, after washing with DPBS, nuclear staining was performed with Hoechst33342 at a concentration of […] at room temperature for 10 minutes. After washing twice with DPBS, images were acquired with Operetta. The cell viability was identified by counting the number of cells using Operetta software.

[2] = tested on: Huh7 and Hep3B cell lines; experiment: Cell viability in hepatocellular carcinoma cell lines without drug resistance; format: cell-based; conditions: 0, 1, and 3 µM range, FIG. 4A
Method: as §1

SNU475 cell line [3] = conditions: known property of the SNU475 cell line; cited from earlier work

Structure (SMILES)	anticancer effect of sorafenib in SNU475 (SNU475 cell line [1])	anticancer effect of sorafenib in Huh7 and Hep3B [2]	resistance of SNU475 to regorafenib (SNU475 cell line [3])
CNC(=O)c1cc(Oc2ccc(NC(=O)Nc3ccc(Cl)c(C(F)(F)F)c3)cc2)ccn1 [sorafenib]	exhibited resistance	anticancer effect was exhibited	–
CNC(=O)c1cc(Oc2ccc(NC(=O)Nc3ccc(Cl)c(C(F)(F)F)c3)c(F)c2)ccn1 [regorafenib]	–	–	strong resistance
